The values that follow come from patent US20050026812A1, “Conjugated nitro alkene anticancer agents based on isoprenoid metabolism” (Arizona Disease Control Research Commission, priority 2003, published 2005).

One assay has as its system Colon (HT-29). Description: Cancer cell growth inhibition in culture, Colon (HT-29). Format: cell-based, human. Particulars: 50% growth inhibition. The text has this: (§1) Cancer cell growth inhibition.
The next assay has as its system Colorectal (Colo-205). Description: Cancer cell growth inhibition in culture, Colorectal (Colo-205). Particulars: 50% growth inhibition. The class given is cell-based, human.
Excerpt: as §1

The subject of the next assay is NSC Lung (H-460). Put plainly: Cancer cell growth inhibition in culture, NSC Lung (H-460). Format: cell-based. Particulars: Homo sapiens, NCI-H460, 50% growth inhibition.
Excerpt: as §1

The subject of a further assay is Prostate (PC-3). Put plainly: Cancer cell growth inhibition in culture, Prostate (PC-3). The class given is cell-based. As to conditions: Homo sapiens, 50% growth inhibition.
Excerpt: as §1

For assay [1], the system named is Acute myeloid leukemia (HL-60). Put plainly: Cancer cell growth inhibition in culture, Acute myeloid leukemia (HL-60). The class given is cell-based, human. Particulars: 50% growth inhibition.
Excerpt: as §1

The test system of another assay is Fibrosarcoma (HT-1080). Description: Cancer cell growth inhibition in culture, Fibrosarcoma (HT-1080). Format: cell-based, human. As to conditions: 50% growth inhibition.
Excerpt: as §1

In another assay the test system is Urinary bladder (T-24). Put plainly: Cancer cell growth inhibition in culture, Urinary bladder (T-24). Format: cell-based, human. As to conditions: 50% growth inhibition.
Excerpt: as §1

Another assay concerns Colon (Caco-2). Description: Cancer cell growth inhibition in culture, Colon (Caco-2). The class given is cell-based, human. Particulars: 50% growth inhibition.
Excerpt: as §1

For the next assay, the system named is Pancreatic (BXPC-3). Put plainly: Cancer cell growth inhibition in culture, Pancreatic (BXPC-3). The class given is cell-based. Particulars: Homo sapiens.
Excerpt: (§2) Compound RG-14 was also effective at inhibiting the growth of human cancer cells in culture. The GI50 values of this compound against specified human cancer cells and mouse leukemia cells grown in culture are shown in Table 2.
as §1

For a further assay, the system named is Breast (MCF-7). Put plainly: Cancer cell growth inhibition in culture, Breast (MCF-7). Format: cell-based. As to conditions: Homo sapiens, MCF7.
Excerpt: as §2, §1

Assay [2] concerns Central nervous system (SF268). Put plainly: Cancer cell growth inhibition in culture, Central nervous system (SF268). The class given is cell-based. As to conditions: Homo sapiens, SF-268.
Excerpt: as §2, §1

The test system of the next assay is Lung (NCI-H460). Description: Cancer cell growth inhibition in culture, Lung (NCI-H460). Format: cell-based. Particulars: Homo sapiens.
Excerpt: as §2, §1

The test system of another assay is Colon (KM20L2). Put plainly: Cancer cell growth inhibition in culture, Colon (KM20L2). Format: cell-based. As to conditions: Homo sapiens, KM-20L2.
Excerpt: as §2, §1

Another assay deals with Prostate (DU-145). Description: Cancer cell growth inhibition in culture, Prostate (DU-145). Format: cell-based. As to conditions: Homo sapiens.
Excerpt: as §2, §1

For another assay, the system named is Mouse P388 leukemia. Description: Cancer cell growth inhibition in culture, Mouse P388 leukemia. Format: cell-based. Particulars: read-out: ED50 (the source's name).
Excerpt: as §2, §1

Assay [3] relates to human cancer cells and mouse leukemia cells. Put plainly: Cancer cell growth inhibition in culture, panel of Table 2. Format: cell-based. As to conditions: cell lines of Table 2.
Excerpt: as §2, §1

Assay [4] addresses T1, human recombinant protein farnesyltransferase (FTase) (Homo sapiens, UniProt P49354+P49356).
T1 construct: gift from Professor Patrick Casey, Duke University
Put plainly: FTase fluorescence assay after pre-incubation with inhibitor. Format: biochemical. Particulars: 30-minute treatment in vitro, 30° C. How it is done: Preparation of Ds-GCVLS—Ds-GCVLS was prepared by a method analogous to a published procedure. Synthesis was performed by use of a Millipore 9050 Plus PepSynthesizer that employed standard Fmoc solid phase peptide synthesis methodology. PS-PEG resin and Fmoc protected amino acids were obtained from Millipore. The N-dansylglycine was from Sigma Chemical Co. Peptide purification was performed by RP-HPLC on an Alltech Macrosphere RP300 C8 column. Elution was accomplished with a linear gradient from aqueous 10 mM trifluoroacetic acid to 10 mM trifluoroacetic acid in acetonitrile. Lyophilization yielded a pale yellow solid. […] Concentrations of Ds-GCVLS were determined by use of the extinction coefficient of the dansyl group at 340 nm (ε=4250 M-1 cm-1). […]
FTase assay—The fluoresence assay conditions were adapted from a published method. […] Enzyme activity (approximately 60 nM FTase) was monitored at saturating substrate concentrations (10 μM farnesyl diphosphate, ammonium salt, prepared by successive dilutions of a commercial 2.3 mM solution in methanol:10 mM aqueous NH4OH (7:3) into assay buffer, and 1.0 FM Ds-GCVLS) by measurement of the increase in fluorescence emission observed at λ=505 nm as FTase farnesylated Ds-GCVLS for a period of 10 min. […] All fluorescence assays were conducted in a 4 mm×4 mm quartz cuvette with excitation at 340 nm. […]

Read-outs that look alike come from different tables or passages of the source.

A word on the GI50: it is the concentration giving 50% growth inhibition. As usually defined, the inhibition is the relative decrease from the control value, in per cent.

As for `CC(C)=CCCC(C)C/C=C/[N+](=O)[O-]` (stereo not drawn) [RG-7, 4,8-dimethyl-1-nitronona-1,7-diene], the GI50 was 10^−4 to 10^−5 molar in the assay on Colon (HT-29); 10^−4 to 10^−5 molar in the assay with Colorectal (Colo-205); 12 µM with NSC Lung (H-460); 44 µM in the assay with Prostate (PC-3); more than 100 µM in assay [1] (Homo sapiens, read-out: GI50); 10^−4 to 10^−5 molar in the assay on Fibrosarcoma (HT-1080). Besides, the 50% growth inhibitory concentration (GI50) is 10^−4 to 10^−5 molar in the assay with Urinary bladder (T-24) and more than 100 µM in the assay on Colon (Caco-2) (Homo sapiens, read-out: GI50).

As for `CC(C)=CCCC(C)CCC(C)[N+](=O)[O-]` (stereo not drawn) [SRG-8, reference compound], the 50% growth inhibitory concentration (GI50) (in the assay on Pancreatic (BXPC-3); in the assay with Breast (MCF-7); in [2]; with Lung (NCI-H460); in the assay with Colon (KM20L2); with Prostate (DU-145)) was more than 47 µM each time. Also, the EC50 in the assay on Mouse P388 leukemia was more than 126 µM. In assay [3], the “anticancer cell growth activity” value was “did not show detectable anticancer cell growth activity”.

For `CC(C)=CCCC(C)CC=C(C)[N+](=O)[O-]` (racemic) [RG-14, 5,9-dimethyl-2-nitrodeca-2,8-diene], the GI50 amounted to 62 µM with Pancreatic (BXPC-3); 39 µM in the assay on Breast (MCF-7); 73 µM in [2]; 72 µM in the assay with Lung (NCI-H460); 77 µM with Colon (KM20L2); 72 µM in the assay on Prostate (DU-145). For the same molecule, the EC50 with Mouse P388 leukemia is 26 µM.

Turning to `CC(C)=CCC/C(C)=C/CCC(C)C/C=C(\C)[N+](=O)[O-]` (racemic) [RG-4, 5,9,13-trimethyl-2-nitrotetradeca-2,8,12-triene], the “decrease of FTase activity” value in [4] (5 μM) is listed as 35%. The inhibition at 50 µM in [4] (50 μM) is 83%. The GI50 is 10^−4 to 10^−5 molar in the assay with Colon (HT-29); 10^−4 to 10^−5 molar with Colorectal (Colo-205); 11 µM in the assay with NSC Lung (H-460); 1.5 µM in the assay with Prostate (PC-3); 10^−6 to 10^−7 molar in [1]; 10^−6 to 10^−7 molar in the assay with Fibrosarcoma (HT-1080). Besides, the GI50 in the assay with Urinary bladder (T-24) and with Colon (Caco-2) was 10^−4 to 10^−5 molar each time.
